From US9808448B2, “Pharmaceutical compounds and use of same in cancer and tauopathies” (THE REGENTS OF THE UNIVERSITY OF MICHIGAN, priority 2013, dated 2017) come the findings set out here.

Format in all cases: cell-based
For one assay, the system named is MEF (C57BL/6). The experiment in a line: Cell survival, MEF. Particulars: Mus musculus; second table; read-out: IC50/μM MEF (C57BL/6).
In a further assay the test system is MDA-MB-231. Kind of assay: Cancer activity screen (MTT cell survival), MDA-MB-231. Particulars: Homo sapiens, second table.
The next assay concerns MCF-7. Kind of assay: Cancer activity screen (MTT cell survival), MCF-7. Particulars: Homo sapiens, MCF7; second table.

For the molecule `COC(=O)Cn1c(=O)/c(=C2\Sc3cc(C(F)(F)F)ccc3N2C)s/c1=C\c1nccs1`, the IC50 is > 50 µM with MEF (C57BL/6) and > 30 µM with MDA-MB-231. The matching figures for `CCn1c(=O)/c(=C2\Sc3cc(Cl)ccc3N2C)s/c1=C\c1ccc(C#N)c[n+]1Cc1ccccc1`: > 50 µM and 1.92 ± 0.16 µM. Regarding `CCN1C(=O)/C(=C2\Sc3ccccc3N2C)S/C1=N\c1ccccc1`, the IC50 in the assay on MEF (C57BL/6) is > 50 µM; with MDA-MB-231 it was > 30 µM. On to `CCN1C(=O)/C(=C2\Sc3c(F)cccc3N2C)S/C1=N\c1ccccc1`, for which the figures for the IC50 in the assay on MEF (C57BL/6) and in the assay with MDA-MB-231 were > 50 µM and 17.7 ± 2.85 µM, respectively.

As to `CCn1c(=O)/c(=C2\Sc3cccc(F)c3N2C)s/c1=C\c1cccc[n+]1CC`, the IC50 in the assay on MCF-7 is 1 ± 0.3 µM; in the assay with MEF (C57BL/6) it was > 30 µM; in the assay with MDA-MB-231 it was 3.8 ± 0.2 µM. The matching figures for `CCn1c(=O)/c(=C2\Sc3ccccc3N2C)s/c1=C\c1scc[n+]1Cc1ccccc1`: 0.6 ± 0.04 µM, 6.8 ± 0.4 µM and 0.5 ± 0.1 µM. On to `CCN1C(=O)/C(=C2\Sc3cc(C(F)(F)F)ccc3N2C)S/C1=N\c1ccccc1`, for which the IC50 with MEF (C57BL/6) is > 50 µM; with MDA-MB-231, 16.2 ± 1.12 µM. In the case of `C=CCn1c(=O)/c(=C2\Sc3c(F)cccc3N2C)s/c1=C\c1ccncc1`, the IC50 with MEF (C57BL/6) is > 50 µM; in the assay on MDA-MB-231, 3.07 ± 0.73 µM. With `COC(=O)Cn1c(=O)/c(=C2\Sc3cccc(F)c3N2C)s/c1=C\c1ccncc1`, the IC50 in the assay on MDA-MB-231 was > 20 µM. The same measure, in the same setting: the figure for `CN1/C(=c2\s/c(=C\c3ccncc3)n(CC(=O)O)c2=O)Sc2cc(F)ccc21` is > 20 µM; for `CCn1c(=O)/c(=C2\Sc3c(ccc(F)c3F)N2C)s/c1=C\c1cccc[n+]1Cc1cc(C)on1` it is 3.72 ± 0.41 µM; for `CCn1c(=O)/c(=C2\Sc3cc(Cl)ccc3N2C)s/c1=C\c1scc[n+]1Cc1cccc(C(F)(F)F)c1` it is 0.4 ± 0.04 µM. `CCN1C(=O)/C(=C2\Sc3cc(F)ccc3N2C)S/C1=N\c1ccccc1`: the IC50 with MEF (C57BL/6) was > 50 µM; in the assay on MDA-MB-231, > 30 µM. `CCn1c(=O)/c(=C2\Sc3ccc(Cl)cc3N2C)s/c1=C\c1scc[n+]1Cc1ccsc1` showed an IC50 in the assay with MDA-MB-231 of 0.44 ± 0.05 µM. Still for that read-out and setting: with `CCn1c(=O)/c(=C2\Sc3cc(C(F)(F)F)ccc3N2C)s/c1=C\c1cccc[n+]1CC` the figure was 2.7 ± 0.6 µM. On the same count and under the same terms, the figure for `CCn1c(=O)/c(=C2\Sc3cc(Cl)ccc3N2C)s/c1=C\c1scc[n+]1Cc1ccccc1F` is 0.29 ± 0.04 µM.

In turn, `CCn1c(=O)/c(=C2\Sc3cc(Cl)ccc3N2C)s/c1=C\c1scc[n+]1Cc1ccc(F)cc1` returned an IC50 with MDA-MB-231 of 1.07 ± 0.19 µM. Still for that read-out and setting: with `CCn1c(=O)/c(=C2\Sc3ccc(Cl)cc3N2C)s/c1=C\c1scc[n+]1Cc1ccsc1C(=O)OC` the figure was 0.16 ± 0.02 µM; with `CCn1c(=O)/c(=C2\Sc3c(ccc(F)c3F)N2C)s/c1=C\c1cccc[n+]1Cc1ccccc1C(F)(F)F`, 0.38 ± 0.07 µM; with `COC(=O)CCn1c(=O)/c(=C2\Sc3cc(Cl)ccc3N2C)s/c1=C\c1scc[n+]1Cc1ccccc1`, 0.24 ± 0.03 µM. Consider `COC(=O)Cn1c(=O)/c(=C2\Sc3cc(Cl)ccc3N2C)s/c1=C\c1scc[n+]1Cc1ccccc1`, for which the IC50 with MDA-MB-231 was > 20 µM.

In turn, `CCn1c(=O)/c(=C2\Sc3cc(Cl)ccc3N2C)s/c1=C\c1scc[n+]1Cc1cccc(F)c1` gave an IC50 with MDA-MB-231 of 1.01 ± 0.16 µM. Same read-out and setting: with `CCn1c(=O)/c(=C2\Sc3ccc(S(C)(=O)=O)cc3N2C)s/c1=C\c1scc[n+]1Cc1ccccc1` the figure was > 20 µM; with `CCn1c(=O)/c(=C2\Sc3c(ccc(F)c3F)N2C)s/c1=C\c1cccc[n+]1Cc1cc(-c2ccccc2)no1`, 1.33 ± 0.2 µM. As to `CCn1c(=O)/c(=C2\Sc3c(F)cccc3N2C)s/c1=C\c1cccc[n+]1CC`, the IC50 in the assay with MCF-7 came to 0.8 ± 0.1 µM; with MEF (C57BL/6) it was 27.1 ± 3 µM; with MDA-MB-231 it was 2.8 ± 0.2 µM.

`COC(=O)Cn1c(=O)/c(=C2\Sc3ccccc3N2C)s/c1=C\c1cccc[n+]1C`: the IC50 in the assay on MEF (C57BL/6) is > 50 µM; with MDA-MB-231, 16.5 ± 1.05 µM. In the case of `CCn1c(=O)/c(=C2\Sc3cc(F)ccc3N2C)s/c1=C\c1cccc[n+]1CC`, the results for the IC50 in the assay on MCF-7, in the assay with MEF (C57BL/6) and with MDA-MB-231 were 0.9 ± 0.3 µM, > 30 µM and 8.3 ± 1.1 µM, respectively. In the assay on MDA-MB-231, `CCn1c(=O)/c(=C2\Sc3ccc(Cl)cc3N2C)s/c1=C\c1scc[n+]1Cc1cc(C)on1` showed an IC50 of 1.05 ± 0.09 µM.

`CCn1c(=O)/c(=C2\Sc3c(ccc(F)c3F)N2C)s/c1=C\c1cccc[n+]1Cc1ccsc1C(=O)OC`: in the assay with MDA-MB-231, the IC50 stood at 1.95 ± 0.27 µM. Still for that read-out and setting: the figure for `CCn1c(=O)/c(=C2\Sc3cc(Cl)ccc3N2C)s/c1=C\c1scc[n+]1Cc1csc(C)n1` is 0.74 ± 0.07 µM; for `CCn1c(=O)/c(=C2\Sc3ccc(Cl)cc3N2C)s/c1=C\c1scc[n+]1Cc1ccc(C(F)(F)F)o1` it is 0.3 ± 0.02 µM. Turning to `COC(=O)Cn1c(=O)/c(=C2\Sc3ccccc3N2C)s/c1=C\c1ccccn1`, the IC50 in the assay with MEF (C57BL/6) was > 50 µM. As to `CCn1c(=O)/c(=C2\Sc3cc(F)ccc3N2C)s/c1=C\c1scc[n+]1Cc1ccc(C(F)(F)F)o1`, in the assay on MDA-MB-231, the IC50 was found to be 0.16 ± 0.03 µM.

For `CCn1c(=O)/c(=C2\Sc3ccc(OC(F)(F)F)cc3N2C)s/c1=C\c1scc[n+]1Cc1ccccc1`, the IC50 in the assay with MDA-MB-231 was determined as 1.25 ± 0.13 µM. As to `CCn1c(=O)/c(=C2\Sc3cc(OC(F)(F)F)ccc3N2C)s/c1=C\c1ccccn1`, the IC50 in the assay on MEF (C57BL/6) is > 50 µM; in the assay on MDA-MB-231, 4.4 ± 0.5 µM. Regarding `CCn1c(=O)/c(=C2\Sc3cc(Cl)ccc3N2C)s/c1=C\c1scc[n+]1Cc1ccc(C(F)(F)F)cc1`, the IC50 in the assay on MDA-MB-231 came out at 1.2 ± 0.15 µM.

In the assay on MDA-MB-231, `CCn1c(=O)/c(=C2\Sc3c(ccc(F)c3F)N2C)s/c1=C\c1scc[n+]1Cc1cc(C)on1` yielded an IC50 of 1.33 ± 0.11 µM.

In the assay on MDA-MB-231, `CCn1c(=O)/c(=C2\Sc3cc(F)ccc3N2C)s/c1=C\c1scc[n+]1Cc1ccc(C(=O)OC)o1` displayed an IC50 of 3.05 ± 0.42 µM. Take `CCn1c(=O)/c(=C2\Sc3ccc(Cl)cc3N2C)s/c1=C\c1cccc[n+]1Cc1ccccc1`: in the assay on MDA-MB-231, the IC50 came to 0.34 ± 0.03 µM.

In the assay with MDA-MB-231, `CCn1c(=O)/c(=C2\Sc3ccc(C)cc3N2C)s/c1=C\c1scc[n+]1Cc1ccccc1` gave an IC50 of 0.078 ± 0.01 µM. Take `CCn1c(=O)/c(=C2\Sc3ccccc3N2C)s/c1=C\c1cc[n+](C)cc1`: the IC50 is > 50 µM with MEF (C57BL/6) and 3.01 ± 0.26 µM in the assay on MDA-MB-231. In turn, `CCn1c(=O)/c(=C2\Sc3c(ccc(F)c3F)N2C)s/c1=C\c1scc[n+]1Cc1ccsc1Br` displayed an IC50 in the assay with MDA-MB-231 of 0.48 ± 0.06 µM. For the molecule `COC(=O)Cn1c(=O)/c(=C2\Sc3ccccc3N2C)s/c1=C\c1scc[n+]1Cc1ccccc1`, the IC50 in the assay on MEF (C57BL/6) was > 50 µM; in the assay with MDA-MB-231, 0.87 ± 0.14 µM. The matching figures for `COC(=O)Cn1c(=O)/c(=C2\Sc3cc(C(F)(F)F)ccc3N2C)s/c1=C\c1ccccn1`: > 50 µM and > 30 µM. Regarding `CCn1c(=O)/c(=C2\Sc3cc(Cl)ccc3N2C)s/c1=C\c1nccs1`, in the assay with MDA-MB-231, the IC50 was 2.3 ± 0.6 µM. With `CCn1c(=O)/c(=C2\Sc3cc(OC(F)(F)F)ccc3N2C)s/c1=C\c1scc[n+]1Cc1ccc(C(F)(F)F)o1`, the IC50 in the assay with MDA-MB-231 amounted to 0.51 ± 0.03 µM.

For the molecule `CCN1C(=O)/C(=C2\Sc3cccc(F)c3N2C)S/C1=N\c1ccccc1`, the values for the IC50 in the assay on MEF (C57BL/6) and with MDA-MB-231 were > 50 µM and > 30 µM, respectively. `CCn1c(=O)/c(=C2\Sc3cc(Cl)ccc3N2C)s/c1=C\c1scc[n+]1Cc1ccc(C(F)(F)F)o1`: in the assay with MDA-MB-231, the IC50 is 0.12 ± 0.02 µM.

As to `CCn1c(=O)/c(=C2\Sc3ccc(Cl)cc3N2C)s/c1=C\c1scc[n+]1C`, in the assay on MDA-MB-231, the IC50 worked out at 3.1 ± 0.4 µM. Still for that read-out and setting: the figure for `CCn1c(=O)/c(=C2\Sc3ccc(Cl)cc3N2C)s/c1=C\c1nccs1` is 1.5 ± 0.3 µM; for `CCn1c(=O)/c(=C2\Sc3ccc(Cl)cc3N2C)s/c1=C\c1scc[n+]1Cc1ccsc1Br` it is 0.24 ± 0.03 µM. Turning to `COC(=O)Cn1c(=O)/c(=C2\Sc3ccccc3N2C)s/c1=C\c1nccs1`, the IC50 was > 50 µM in the assay with MEF (C57BL/6) and > 30 µM in the assay on MDA-MB-231.
